Test results taken from patent US20240182460A1, “ALLOSTERIC CHROMENONE INHIBITORS OF PHOSPHOINOSITIDE 3-KINASE (PI3K) FOR THE TREATMENT OF DISEASE” (PETRA PHARMA CORPORATION, priority 2022, published 2024).
pIC50: −log10 of the molar value.

Key:
PI3Kα H1047R = target: T1, PI3Kα H1047R (Homo sapiens, UniProt P42336, H1047R); assay: PI3Kα H1047R mutant in vitro cell based assay, MDA-MB-453 cells (AlphaLisa SureFire); conditions: MDA-MB-453 cell line, 0% FBS, 3 hours treatment
T1 construct: The MDA-MB-453 (ATCC-HTB-131) cell line (PI3Kα H1047R); host or cells: MDA-MB-453
Description: (§1) PI3K-Alpha Kinase (PI3Kα) Activity: Wild-Type PI3Kα, H1047R Mutant PI3Kα, and E545K Mutant PI3Kα In Vitro Cell Based Assays and Determination of IC50 Values for Inhibitors
(§2) The MDA-MB-453 (ATCC-HTB-131) cell line (PI3Kα H1047R) and MCF-7 (ATCC-HTB-22) cell line (PI3Kα E545K), MDA-MB-361 (ATCC-HTB-27) cell line (PI3Kα E545K), and SKBR3 (ATCC-HTB-30) cell line (wild type PI3Kα) were obtained from the American Type Culture Collection (Manassas, VA). MDA-MB-453 cells were maintained in Dulbecco's Modified Eagle Media (DMEM, Gibco 12430) supplemented with 10% Fetal Bovine Serum, heat inactivated (FBS HI, Gibco 10082), 1× non-essential amino acids (NEAA, Gibco 11140), 1 mM sodium pyruvate (Gibco 11360) and 1× Anti-Anti (Gibco 15240). MCF-7 cells were maintained in Minimum Essential Media (MEM) (Gibco 11095) supplemented with 10% Fetal Bovine Serum, heat inactivated (FBS HI, Gibco 10082), 1× non-essential amino acids (NEAA, Gibco 11140), 1 mM sodium pyruvate (Gibco 11360), 1× Anti-Anti (Gibco 15240) and 10 μg/mL human insulin (Sigma I 9278). MDA-MB-361 cells were maintained in Dulbecco's Modified Eagle Media (DMEM, Gibco 12430) supplemented with 20% Fetal Bovine Serum, heat inactivated (FBS HI, Gibco 10082), 1× non-essential amino acids (NEAA, Gibco 11140), 1 mM sodium pyruvate (Gibco 11360) and 1× Anti-Anti (Gibco 15240). SKBR3 cells were maintained in McCoy's 5A (Gibco 16600) supplemented with 10% Fetal Bovine Serum, heat inactivated (FBS HI, Gibco 10082), and 1× Anti-Anti (Gibco 15240). Cultures were maintained in a humidified incubator at 37° C. under 5% CO2/95% air.
(§3) For compound testing in 0% FBS, MDA-MB-453, MCF-7 and SKBR3 cells were seeded at a density of 1.5×10^4, 1.0×10^4, and 1.0×10^4 cells, respectively, per well in white 384-well plates in 20 μl of Minimum Essential Media (MEM) assay media with 1×NEAA, 1 mM sodium pyruvate, and 1 μg/mL human insulin (Sigma 19278) (Assay Medium); while MDA-MB-361 cells were seeded at a density of 1.5×10^4 per well in white 384-well plates in 20 μl Assay Medium without insulin. After plating, cells were allowed to attach overnight. Compounds dissolved in 10 mM stock solutions in DMSO were serially diluted 1:3 in DMSO to generate a 10-point dilution series and plated using an acoustic liquid handler system (Echo 550 Series Liquid Handler, Labcyte). A 5× intermediate compound dilution plate in MEM with 1×NEAA and 1 mM sodium pyruvate (150 μM starting compound concentration in 1.5% DMSO) was then prepared. Five μl of the intermediate serially diluted compounds were added to the cell plate to final concentrations ranging from […] in 0.3% DMSO. 0.3% DMSO alone was used to establish the maximum (MAX) signal and GDC-0032 at a final concentration of 1 μM was used as a reference compound for the minimum (MIN) signal. After 3 hours treatment, the medium was removed, and the cells were lysed in 10 μL of 1× SureFire Lysis buffer with shaking for 10 minutes at room temperature. The Acceptor Mix (Reaction Buffer 1+Reaction Buffer 2+Activation Buffer+SureFire Ultra Acceptor Beads) was prepared by diluting Activation buffer 25-fold in combined Reaction Buffer 1 and Reaction Buffer 2.
(§4) The Acceptor beads were diluted 50-fold in the combined Reaction Buffers. Five μL of Acceptor Mix was added to each well, the plate was sealed and covered with foil and incubated for 1 hour at room temperature. The Donor Mix (dilution buffer+SureFire Ultra Donor Beads) was prepared by diluting Donor Beads 50-fold in dilution buffer. Five μL of the Donor Mix was added to each well and the plate sealed and covered with foil and incubated for 1-2 hours at room temperature in the dark. The plates were read on a Neo2 plate reader instrument from Biotek using standard AlphaLisa settings.
(§5) Compounds were tested in duplicate and the % inhibition at each compound concentration was used to generate two dose response curves. One IC50 was generated using average % inhibition at each compound concentration. […]

[1] = Metabolic stability and intrinsic clearance in human liver microsomes (MICS); type: in vitro ADME; conditions: human, microsomes, pH 7.4
How it was run: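 Test compound (1 μM final) incubated at 37° C with liver microsomes (0.5 mg/mL protein) in 100 mM phosphate buffer pH 7.4, with 1 mM NADPH or without cofactor; sampled at 0.5–60 min, quenched with cold acetonitrile. Parent remaining quantified by LC-MS/MS; t1/2 from ln-% remaining slope converted to CLint (μL/min/mg protein).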

PI3Kα E545K [2] = target: T2, PI3Kα E545K (Homo sapiens, UniProt P42336, E545K); assay: PI3Kα E545K mutant in vitro cell based assay, MCF-7 cells; conditions: MCF-7 cell line, 0% FBS, 3 hours treatment
Description: as §1, §2, §3, §4, §5

PI3Kα E545K [3] = target: T2, PI3Kα E545K; assay: PI3Kα E545K mutant in vitro cell based assay, MDA-MB-361 cells; set-up: MDA-MB-361 (ATCC-HTB-27) cell line (PI3Kα E545K); host or cells: MDA-MB-361; conditions: MDA-MB-361 cell line, 0% FBS, no insulin, 3 hours treatment
How it was run: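 MDA-MB-361 cells (PI3Kα E545K) seeded in serum-free MEM assay medium without insulin, attached overnight, then treated 3 h with compound (10-point 1:3 series, 0.3% DMSO). AlphaLISA SureFire readout of lysates. IC50 by 4-parameter fit, normalized to DMSO (max) and 1 μM GDC-0032 (min).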

T2 sequence (P42336 whole entry E545K): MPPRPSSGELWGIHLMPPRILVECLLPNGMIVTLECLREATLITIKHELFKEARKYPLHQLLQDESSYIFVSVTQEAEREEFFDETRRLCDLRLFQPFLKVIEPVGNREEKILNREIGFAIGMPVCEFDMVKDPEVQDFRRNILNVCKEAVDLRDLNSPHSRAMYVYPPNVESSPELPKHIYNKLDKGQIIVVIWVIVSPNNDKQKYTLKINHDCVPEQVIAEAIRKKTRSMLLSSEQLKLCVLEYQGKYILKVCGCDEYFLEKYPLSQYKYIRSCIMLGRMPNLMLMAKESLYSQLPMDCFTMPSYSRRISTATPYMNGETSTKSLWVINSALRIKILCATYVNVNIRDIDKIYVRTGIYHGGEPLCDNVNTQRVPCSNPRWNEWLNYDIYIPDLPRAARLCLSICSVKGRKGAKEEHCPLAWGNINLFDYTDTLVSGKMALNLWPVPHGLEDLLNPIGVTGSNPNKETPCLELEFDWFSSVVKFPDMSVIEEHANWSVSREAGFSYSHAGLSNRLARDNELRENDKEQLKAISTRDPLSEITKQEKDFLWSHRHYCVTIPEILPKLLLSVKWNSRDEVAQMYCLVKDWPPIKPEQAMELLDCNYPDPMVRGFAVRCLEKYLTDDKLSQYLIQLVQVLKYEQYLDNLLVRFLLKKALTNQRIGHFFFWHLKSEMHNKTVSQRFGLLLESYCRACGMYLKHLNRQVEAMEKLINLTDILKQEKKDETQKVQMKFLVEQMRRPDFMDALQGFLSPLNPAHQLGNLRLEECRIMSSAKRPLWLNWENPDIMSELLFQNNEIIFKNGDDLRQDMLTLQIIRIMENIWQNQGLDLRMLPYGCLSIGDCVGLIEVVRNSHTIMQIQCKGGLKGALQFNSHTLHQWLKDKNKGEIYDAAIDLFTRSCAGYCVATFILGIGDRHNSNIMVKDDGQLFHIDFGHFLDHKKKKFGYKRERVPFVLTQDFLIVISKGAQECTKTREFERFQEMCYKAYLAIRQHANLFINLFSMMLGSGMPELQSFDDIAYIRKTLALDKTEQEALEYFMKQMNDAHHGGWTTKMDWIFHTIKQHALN
T2 sequence (P27986 whole entry partner): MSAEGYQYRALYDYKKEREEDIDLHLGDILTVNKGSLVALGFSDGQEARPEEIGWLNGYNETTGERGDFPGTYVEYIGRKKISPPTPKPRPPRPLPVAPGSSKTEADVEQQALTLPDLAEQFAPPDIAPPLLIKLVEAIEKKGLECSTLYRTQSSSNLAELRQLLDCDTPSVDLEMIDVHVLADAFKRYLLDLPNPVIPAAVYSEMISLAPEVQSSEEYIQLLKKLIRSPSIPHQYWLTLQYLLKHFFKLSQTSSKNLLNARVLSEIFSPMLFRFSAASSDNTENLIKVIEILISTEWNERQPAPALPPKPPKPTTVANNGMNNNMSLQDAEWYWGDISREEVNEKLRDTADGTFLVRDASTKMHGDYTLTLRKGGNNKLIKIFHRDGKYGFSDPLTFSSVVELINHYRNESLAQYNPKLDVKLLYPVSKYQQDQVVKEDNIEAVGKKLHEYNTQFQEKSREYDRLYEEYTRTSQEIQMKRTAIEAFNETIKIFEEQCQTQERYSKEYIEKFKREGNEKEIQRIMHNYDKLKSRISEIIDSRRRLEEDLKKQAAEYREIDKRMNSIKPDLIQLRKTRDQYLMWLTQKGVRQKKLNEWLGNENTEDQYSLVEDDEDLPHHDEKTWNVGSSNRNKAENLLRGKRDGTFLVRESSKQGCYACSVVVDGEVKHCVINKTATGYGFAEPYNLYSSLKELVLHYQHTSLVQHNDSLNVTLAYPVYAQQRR
T1 sequence (P42336 whole entry H1047R): as the sequence (P42336 whole entry E545K) above, with K545E, H1047R counted along it
T1 sequence (P27986 whole entry partner): as the sequence (P27986 whole entry partner) above

| Structure (SMILES) | pIC50 (PI3Kα H1047R) | microsomal CLint at 1 μM [1] | pIC50 (PI3Kα E545K [2]) | pIC50 (PI3Kα E545K [3]) |
| --- | --- | --- | --- | --- |
| Cc1cc([C@@H](C)Oc2ccccc2C(N)=O)c2oc(-c3ccc4nn(C)cc4c3)c(C)c(=O)c2c1 [Example 9A, 2-[(1R)-1-[3,6-Dimethyl-2-(2-methylindazol-5-yl)-4-oxo-chromen-8-yl]ethoxy]benzamide] | > 7.00 |  |  |  |
| Cc1cc([C@@H](C)Oc2ccc(Cl)nc2S(N)(=O)=O)c2oc(-c3ccc4nn(CCO)cc4c3)c(C)c(=O)c2c1 [Example 88C, 6-Chloro-3-[(1R)-1-[2-[2-(2-hydroxyethyl)indazol-5-yl]-3,6-dimethyl-4-oxo-chromen-8-yl]ethoxy]pyridine-2-sulfonamide] | > 7.00 |  |  |  |
| Cc1cc([C@@H](C)Oc2ccc(Cl)nc2C(N)=O)c2oc(-c3cnn4c3OCCC4)c(C)c(=O)c2c1 [Example 108A, 6-Chloro-3-[(1R)-1-[2-(6,7-dihydro-5H-pyrazolo[5,1-b][1,3]oxazin-3-yl)-3,6-dimethyl-4-oxo-chromen-8-yl]ethoxy]pyridine-2-carboxamide] | > 7.00 |  |  |  |
| Cc1cc([C@@H](C)Oc2ccc(Cl)nc2C(N)=O)c2oc(-c3cc4cn(C)nc4cn3)c(C)c(=O)c2c1 [Example 128A, 6-Chloro-3-[(1R)-1-[3,6-dimethyl-2-(2-methylpyrazolo[3,4-c]pyridin-5-yl)-4-oxo-chromen-8-yl]ethoxy]pyridine-2-carboxamide] |  | < 50 µL/min/mg | > 6.30 |  |
| Cc1cc([C@@H](C)Oc2ccc(Cl)nc2-c2noc(=O)[nH]2)c2oc(-c3cnc4ccoc4c3)c(C)c(=O)c2c1 [Example 6C, 3-[6-Chloro-3-[(1R)-1-(2-furo[3,2-b]pyridin-6-yl-3,6-yl)ethoxy]-2-pyridyl]-4H-dimethyl-4-oxo-chromen-8-1,2,4-oxadiazol-5-one] | > 7.00 |  |  |  |
| CCS(=O)(=O)c1ccc(-c2oc3c([C@@H](C)Oc4ccc(Cl)nc4S(N)(=O)=O)cc(C)cc3c(=O)c2C)cc1 [Example 33C, 6-Chloro-3-[(1R)-1-[2-(4-ethylsulfonylphenyl)-3,6-dimethyl-4-oxo-chromen-8-yl]ethoxy]pyridine-2-sulfonamide] | > 7.00 |  |  |  |
| CONC(=O)c1nc(Cl)ccc1O[C@H](C)c1cc(C)cc2c(=O)c(C)c(-c3ccc4nn(C)cc4c3)oc12 [Example 26A, 6-Chloro-3-[(1R)-1-[3,6-dimethyl-2-(2-methylindazol-5-yl)-4-oxo-chromen-8-yl]ethoxy]-N-methoxy-pyridine-2-carboxamide] |  | < 50 µL/min/mg | > 6.30 | > 6.30 |
| Cc1cc([C@@H](C)Oc2ccc(Cl)nc2C(N)=O)c2oc(-c3ccc4nn(C)cc4c3F)c(C)c(=O)c2c1 [Example 46C, 6-Chloro-3-[(1R)-1-[2-(4-fluoro-2-methyl-indazol-5-yl)-3,6-dimethyl-4-oxo-chromen-8-yl]ethoxy]pyridine-2-carboxamide] |  | < 50 µL/min/mg | > 6.30 |  |
| Cc1cc([C@@H](C)Oc2ccc(Cl)nc2C(N)=O)c2oc(-c3ccc4nn(C(F)F)cc4c3)c(C)c(=O)c2c1 [Example 66A, 6-Chloro-3-[(1R)-1-[2-[2-(difluoromethyl)indazol-5-yl]-3,6-dimethyl-4-oxo-chromen-8-yl]ethoxy]pyridine-2-carboxamide] |  | < 50 µL/min/mg | > 6.30 | > 6.30 |
| CONS(=O)(=O)c1nc(Cl)ccc1O[C@H](C)c1cc(C)cc2c(=O)c(C)c(-c3ccccc3)oc12 [Example 32A, 6-Chloro-3-[(1R)-1-(3,6-dimethyl-4-oxo-2-phenyl-chromen-8-yl)ethoxy]-N-methoxy-pyridine-2-sulfonamide] | > 7.00 |  |  |  |
| Cc1cc([C@@H](C)Oc2cccnc2S(N)(=O)=O)c2oc(-c3cnn4c3OCC4)c(C)c(=O)c2c1 [Example 95C, 3-[(1R)-1-[2-(2,3-Dihydropyrazolo[5,1-b]oxazol-7-yl)-3,6-dimethyl-4-oxo-chromen-8-yl]ethoxy]pyridine-2-sulfonamide] | > 7.00 |  |  |  |

Continued, values first:

| pIC50 (PI3Kα H1047R) | microsomal CLint at 1 μM [1] | pIC50 (PI3Kα E545K [2]) | pIC50 (PI3Kα E545K [3]) | Structure (SMILES) |
| --- | --- | --- | --- | --- |
| > 7.00 |  |  |  | Cc1cc([C@@H](C)Oc2ccc(Cl)nc2S(N)(=O)=O)c2oc(-c3cnn(C)n3)c(C)c(=O)c2c1 [Example 35A, 6-Chloro-3-[(1R)-1-[3,6-dimethyl-2-(2-methyltriazol-4-yl)-4-oxo-chromen-8-yl]ethoxy]pyridine-2-sulfonamide] |
| > 7.00 |  |  |  | Cc1cc([C@@H](C)Oc2ccc(Cl)nc2S(N)(=O)=O)c2oc(-c3cnc4nonc4c3)c(C)c(=O)c2c1 [Example 30C, 6-Chloro-3-[(1R)-1-[3,6-dimethyl-2-([1,2,5]oxadiazolo[3,4-b]pyridin-6-yl)-4-oxo-chromen-8-yl]ethoxy]pyridine-2-sulfonamide] |
|  | < 50 µL/min/mg | > 6.30 | > 6.30 | Cc1cc([C@@H](C)Oc2ccc(Cl)nc2S(N)(=O)=O)c2oc(-c3cnn(CCC(F)F)c3)c(C)c(=O)c2c1 [Example 119C, 6-Chloro-3-[(1R)-1-[2-[1-(3,3-difluoropropyl)pyrazol-4-yl]-3,6-dimethyl-4-oxo-chromen-8-yl]ethoxy]pyridine-2-sulfonamide] |
|  | < 50 µL/min/mg | > 6.30 |  | Cc1cc([C@@H](C)Oc2ccc(F)nc2S(N)(=O)=O)c2oc(C3CC3)c(C)c(=O)c2c1 [Example 109C, 3-[(1R)-1-(2-Cyclopropyl-3,6-dimethyl-4-oxo-chromen-8-yl)ethoxy]-6-fluoro-pyridine-2-sulfonamide] |
|  | < 50 µL/min/mg | > 6.30 | > 6.30 | Cc1cc([C@@H](C)Oc2ccc(Cl)nc2S(N)(=O)=O)c2oc(-c3cn[nH]c3)c(C)c(=O)c2c1 [Example 115C, 6-Chloro-3-[(1R)-1-[3,6-dimethyl-4-oxo-2-(1H-pyrazol-4-yl)chromen-8-yl]ethoxy]pyridine-2-sulfonamide] |
|  | < 50 µL/min/mg | > 6.30 | > 6.30 | Cc1cc([C@@H](C)Oc2ccc(F)c(F)c2S(N)(=O)=O)c2oc(-c3cnn(C)c3)c(C)c(=O)c2c1 [Example 110C, 6-[(1R)-1-[3,6-Dimethyl-2-(1-methylpyrazol-4-yl)-4-oxo-chromen-8-yl]ethoxy]-2,3-difluoro-benzenesulfonamide] |
